According to patent publication US12390437B2, “Itaconic acid derivatives and uses thereof intreating an inflammatory disease or a disease associated with an undesirable immune response” (Sitryx Therapeutics Limited, priority 2019, dated 2025):
Read-outs that look alike come from different tables or passages of the source.

Key:
[1] = tested on: IL-1β cytokine output from THP-1s; experiment: THP-1 AlphaLISA IL-1β cytokine assay; assay type: cell-based, human; details: Homo sapiens, read-out: IL-1β (IC50)
In short: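 PMA-differentiated THP-1 cells (72 h) were pre-incubated 30 min with compound, then LPS-primed 24 h and pulsed with nigericin for 1 h at 37 °C. Supernatant cytokine was quantified by AlphaLISA; % inhibition was normalised to +/−LPS plate controls and IC50 taken from concentration-response curves.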

NRF2 = NRF2 +/-GSH activation assay (DiscoverX PathHunter NRF2 translocation kit, U2OS cells); assay type: cell-based; details: Homo sapiens
In short: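 Percent activation, normalised to dimethyl fumarate (high) and vehicle (low) controls, was fitted for EC50 after 6 hours treatment of U2OS PathHunter cells. In the +GSH arm compounds were first pre-incubated 30 minutes in 6 mM working GSH; NRF2 translocation read by chemiluminescent complementation.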

[2] = Mouse pharmacokinetic study, oral administration; assay type: in vivo; details: for concentration at 0.083 h / concentration at 0.25 h / concentration at 0.5 h / concentration at 1 h / concentration at 2 h / concentration at 4 h / concentration at 6 h / concentration at 8 h / concentration at 24 h: male
In short: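 Plasma drug levels were quantified by LC-MS/MS from K2EDTA facial-vein semi-serial bleeds (N=3 per time point) in male C57BL/6 mice aged 6-8 weeks. Gavage dosing used 100 mg/kg (5% DMSO/HPMC-Tween vehicle, 5 min–24 h); tail-vein dosing used 10 mg/kg (10% DMSO/HP-β-CD vehicle, 3 min–8 h).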

[3] = THP-1, PMA-differentiated THP-1 cells, LPS 24 hr then Nigericin 1 hour
[4] = U2OS, normalised to dimethyl fumarate 'High' control, GSH condition not stated in Table 5, read-out: NRF2 activation Emax
[5] = U2OS PathHunter cells, 6 hours, GSH condition not stated in Table 5, read-out: NRF2 activation EC50
[6] = C57BL/6, mouse, plasma, po, 100 mg/kg, plasma, male C57BL/6 mice, oral gavage 100 mg/kg, 0.083 h, read-out: Parent compound concentrations following oral administration, Time 0.083 h
[7] = C57BL/6, mouse, plasma, po, 100 mg/kg, plasma, male C57BL/6 mice, oral gavage 100 mg/kg, 0.25 h, read-out: Parent compound concentrations following oral administration, Time 0.25 h
[8] = C57BL/6, mouse, plasma, po, 100 mg/kg, plasma, male C57BL/6 mice, oral gavage 100 mg/kg, 0.5 h, read-out: Parent compound concentrations following oral administration, Time 0.5 h
[9] = C57BL/6, mouse, plasma, po, 100 mg/kg, plasma, male C57BL/6 mice, oral gavage 100 mg/kg, 1 h, read-out: Parent compound concentrations following oral administration, Time 1 h
[10] = C57BL/6, mouse, plasma, po, 100 mg/kg, plasma, male C57BL/6 mice, oral gavage 100 mg/kg, 2 h, read-out: Parent compound concentrations following oral administration, Time 2 h
[11] = C57BL/6, mouse, plasma, po, 100 mg/kg, plasma, male C57BL/6 mice, oral gavage 100 mg/kg, 4 h, read-out: Parent compound concentrations following oral administration, Time 4 h
[12] = C57BL/6, mouse, plasma, po, 100 mg/kg, plasma, male C57BL/6 mice, oral gavage 100 mg/kg, 6 h, read-out: Parent compound concentrations following oral administration, Time 6 h
[13] = C57BL/6, mouse, plasma, po, 100 mg/kg, plasma, male C57BL/6 mice, oral gavage 100 mg/kg, 8 h, read-out: Parent compound concentrations following oral administration, Time 8 h
[14] = C57BL/6, mouse, plasma, po, 100 mg/kg, plasma, male C57BL/6 mice, oral gavage 100 mg/kg, 24 h, read-out: Parent compound concentrations following oral administration, Time 24 h

IC50 [1, 3] [µM] | EC50 (NRF2; [5]) [µM] | concentration at 0.083 h [2, 6] [ng/mL] | concentration at 0.25 h [2, 7] [ng/mL] | concentration at 0.5 h [2, 8] [ng/mL] | concentration at 1 h [2, 9] [ng/mL] | concentration at 2 h [2, 10] [ng/mL] | concentration at 4 h [2, 11] [ng/mL] | concentration at 6 h [2, 12] [ng/mL] | concentration at 8 h [2, 13] [ng/mL] | concentration at 24 h [2, 14] [ng/mL] | SMILES | Emax (NRF2; [4]) [%] | further results
25.7 | 26.5 | 27500 | 18000 | 6450 | 3400 | 1040 | 568 | 112 | 86 | < 0.8 | C=C(CC(=O)OC1CCCCCCC1)C(=O)OCCC(=O)O [Example 82, 3-((4-(cyclooctyloxy)-2-methylene-4-oxobutanoyl)oxy)propanoic acid] | 164 | 
28.1 | 34.2 |  | 35300 | 15900 | 8520 | 1460 | 198 |  | 31 | < 14 | C=C(CC(=O)OC1CCCCC1)C(=O)OCCC(=O)O [Example 87, 3-((4-(cyclohexyloxy)-2-methylene-4-oxobutanoyl)oxy)propanoic acid] | 113 | 
25.2 | 3.2 | 53900 | 43600 | 33800 | 12700 | 10500 | 4100 | 1950 | 72 | 5.5 | C=C(CC(=O)O[C@H](C)CCCCCC)C(=O)OCCC(=O)O [Example 88, (R)-3-((2-methylene-4-(octan-2-yloxy)-4-oxobutanoyl)oxy)propanoic acid] | 139 | 
16.4 | 29.4 | 22900 | 10600 | 6200 | 3370 | 3470 | 1640 | 1050 | 500 | 1.1 | C=C(CC(=O)OC1CCCCCCC1)C(=O)OCC(=O)O [Example 90, 2-((4-(cyclooctyloxy)-2-methylene-4-oxobutanoyl)oxy)acetic acid] | 157 | 
48.1 | 10.1 |  | 8860 | 6240 | 1920 | 450 | 33 |  | 19 | 13 | C=C(CC(=O)OC1CCCCC1)C(=O)OCC(=O)O [Example 91, 2-((4-(cyclohexyloxy)-2-methylene-4-oxobutanoyl)oxy)acetic acid] | 73 | 
15.7 | 21.2 | 15300 | 4770 | 3780 | 1550 | 810 | 856 | 330 | 443 | < 0.8 | C=C(CC(=O)OC1CC2(CCC2)C1)C(=O)OCC(=O)O [Example 96, 2-((2-methylene-4-oxo-4-(spiro[3.3]heptan-2-yloxy)butanoyl)oxy)acetic acid] | 180 | 

The remaining lines, values behind:

SMILES | IC50 [1, 3] [µM] | EC50 (NRF2; [5]) [µM] | concentration at 0.083 h [2, 6] [ng/mL] | concentration at 0.25 h [2, 7] [ng/mL] | concentration at 0.5 h [2, 8] [ng/mL] | concentration at 1 h [2, 9] [ng/mL] | concentration at 2 h [2, 10] [ng/mL] | concentration at 4 h [2, 11] [ng/mL] | concentration at 6 h [2, 12] [ng/mL] | concentration at 8 h [2, 13] [ng/mL] | concentration at 24 h [2, 14] [ng/mL] | Emax (NRF2; [4]) [%] | further results
C=C(CC(=O)O[C@@H](C)CCCCCC)C(=O)OCCC(=O)O [Example 84, (S)-3-((2-methylene-4-(octan-2-yloxy)-4-oxobutanoyl)oxy)propanoic acid] | 14.3 | 6.3 |  | 9090 | 5120 | 3310 | 1000 | 368 |  | 217 | < 31 | 185 | 
C=C(CC(=O)OCCCOc1ccccc1)C(=O)OCCC(=O)O [Example 86, 3-((2-methylene-4-oxo-4-(3-phenoxypropoxy)butanoyl)oxy)propanoic acid] | 100 | 21 |  | 41 | 943 | 686 | 149 | 19 |  | < 3 | < 3 | 91 | 
C=C(CC(=O)O[C@@H](C)CCCCCC)C(=O)OCC(=O)O [Example 89, (S)-2-((2-methylene-4-(octan-2-yloxy)-4-oxobutanoyl)oxy)acetic acid] | 17.5 | 22.4 | 44000 | 39100 | 28500 | 14000 | 4740 | 918 | 582 | 16 | 6.8 | 238 | 
C=C(CC(=O)OCCCCCC)C(=O)OCC(=O)O [Example 94, 2-((4-(hexyloxy)-2-methylene-4-oxobutanoyl)oxy)acetic acid] | 5.3 | 22.2 | 27800 | 12600 | 8220 | 3110 | 2140 | 392 | 196 | 90 | < 0.8 | 193 | 
C=C(CC(=O)O[C@H](C)CCCCCC)C(=O)OCC(=O)O [Example 112, (R)-2-((2-methylene-4-(octan-2-yloxy)-4-oxobutanoyl)oxy)acetic acid] | 14.6 | 8.9 | 79800 | 64600 | 72300 | 49500 | 31400 | 21300 | 6780 | 12200 | 25 | 173 | IC50 ([1]; THP-1, Table 10, assay of Biological Example 1 (THP-1)): 14.6 µM; EC50 (NRF2; U2OS, Table 10, assay of Biological Example 5 (NRF2), read-out: EC50): 8.9 µM; Emax (NRF2; U2OS, Table 10, assay of Biological Example 5 (NRF2), read-out: Emax): 173%; concentration at 0.083 h ([2]; C57BL/6, po, mouse plasma, Example 112 dosed orally at 100 mg/kg (Intermediate 8 = metabolite), time 0.083 h, read-out: Example 112 and Intermediate 8 concentrations following oral administration): 109000 ng/mL; concentration at 0.25 h ([2]; C57BL/6, po, mouse plasma, Example 112 dosed orally at 100 mg/kg (Intermediate 8 = metabolite), time 0.25 h, read-out: Example 112 and Intermediate 8 concentrations following oral administration): 116000 ng/mL; concentration at 0.5 h ([2]; C57BL/6, po, mouse plasma, Example 112 dosed orally at 100 mg/kg (Intermediate 8 = metabolite), time 0.5 h, read-out: Example 112 and Intermediate 8 concentrations following oral administration): 74200 ng/mL; concentration at 1 h ([2]; C57BL/6, po, mouse plasma, Example 112 dosed orally at 100 mg/kg (Intermediate 8 = metabolite), time 1 h, read-out: Example 112 and Intermediate 8 concentrations following oral administration): 27900 ng/mL; concentration at 2 h ([2]; C57BL/6, po, mouse plasma, Example 112 dosed orally at 100 mg/kg (Intermediate 8 = metabolite), time 2 h, read-out: Example 112 and Intermediate 8 concentrations following oral administration): 14000 ng/mL; concentration at 4 h ([2]; C57BL/6, po, mouse plasma, Example 112 dosed orally at 100 mg/kg (Intermediate 8 = metabolite), time 4 h, read-out: Example 112 and Intermediate 8 concentrations following oral administration): 4880 ng/mL; concentration at 6 h ([2]; C57BL/6, po, mouse plasma, Example 112 dosed orally at 100 mg/kg (Intermediate 8 = metabolite), time 6 h, read-out: Example 112 and Intermediate 8 concentrations following oral administration): 4020 ng/mL; concentration at 8 h ([2]; C57BL/6, po, mouse plasma, Example 112 dosed orally at 100 mg/kg (Intermediate 8 = metabolite), time 8 h, read-out: Example 112 and Intermediate 8 concentrations following oral administration): 867 ng/mL; concentration at 24 h ([2]; C57BL/6, po, mouse plasma, Example 112 dosed orally at 100 mg/kg (Intermediate 8 = metabolite), time 24 h, read-out: Example 112 and Intermediate 8 concentrations following oral administration): < 8 ng/mL; Metabolism in vivo ([2]; mouse pharmacokinetic study, oral): undergoes hydrolysis in vivo to form Intermediate 8
